These are literature values, as cited in US20220370316A1, “BIOCIDE PRODUCT OF BROAD, CONTINUOUS AND PROLONGUED EFFECT BASED ON ETHANOL, BENZALKONIUM CHLORIDE AND COPPER NANOPARTICLES” (priority 2021, published 2022).

The subject of one series is cutaneous bacteria. The settings on record: ethanol at 70% concentration, two minutes, skin kept in contact with the alcohol without drying.
The conditions of series [1]: after topical application.

With `CCO` [Ethanol, ethanol], the cutaneous bacteria destroyed entry in the series with cutaneous bacteria is listed as “approximately 90%”.
Turning to “Alkyl-benzyl-dimethyl ammonium chloride [Benzalkonium chloride]”, the “time range of effectivity” value in series [1] is at most 12 h.
